Data set [1] deals with Kwl:ICR mice. To be noted: mouse, in vivo, 14 days. As for the experimental part: (§1) The present inventors performed single oral dose toxicity tests (2,000 mg/kg) for N-nonanoyltryptamine over 14 days using Kwl:ICR mice. […] Patch tests were performed on human skin, the skin irritation index was 0.0, and the safety was confirmed (LIFE SCIENCE LABORATORIES, LTD., June 2011).

Data set [2] concerns human skin. The experiment in a line: patch test on human skin. To be noted: patch tests on human skin. The format is in vivo. As to the method:
as §1

For data set [3], the system named is goats. The format is in vivo. To be noted: 1.0 mg/50 kg/day over 4 years.

Bounds are passed on as bounds.

Turning to `CCCCCCCCC(=O)NCCc1c[nH]c2ccccc12` [N-nonanoyltryptamine], the lethal dose in data set [1] was ≥ 2,000 mg/kg. The skin irritation index in data set [2] came out at 0.0. The breeding effect result in data set [3] is “strong breeding effect”.
